Values of other authors, collected in patent publication US20100310668A1, “PHARMACEUTICAL COMPOSITIONS COMPRISING N-[2-(DIETHYLAMINO)ETHYL]-5-[(5-FLUORO-1,2-DIHYDRO-2-OXO-3H-INDOL-3-YLIDENE)METHYL]-2,4-DIMETHYL-1H-PYRROLE-3-CARBOXAMIDE” (ratiopharm GmbH, priority 2008, published 2010).

Conditions: solid (crystalline) form obtained by known manufacturing processes

solubility in water: poor
SMILES: CCN(CC)CCNC(=O)c1c(C)[nH]c(/C=C2\C(=O)Nc3ccc(F)cc32)c1C [compound I, N-[2-(diethylamino)ethyl]-5-[(5-fluoro-1,2-dihydro-2-oxo-3H-indol-3-ylidene)methyl]-2,4-dimethyl-1H-pyrrole-3-carboxamide]
